# In patent publication US20230263746A1, “Synergistic Polyamine Combinations And Methods Therefor” (Compound Solutions Inc., priority 2022, published 2023):
# Entries after “also recorded” stand apart in the source; their conditions may differ.
# Key:
# wildtype C. elegans [1] = assay: Lifespan in a C. elegans model; assay type: in vivo; conditions: for effect on lifespan compared to control: 100 μM resveratrol, 500 μM NMN, 20 μg/mL spermidine, 6 μg/mL spermine, or 20 μg/mL spermidine with 6 μg/mL spermine, scored daily until all animals dead; for fraction of live organisms at the same date compared to control: at and after day 12 (latter third in life), FIG. 4
# Excerpt: One physiological marker found to be beneficially and synergistically modulated by the compositions presented herein is lifespan. […] An additional control group was given no treatment. All groups were loaded into chips at the L4-stage. From the 1st day of adulthood, the animals were switched to heat-killed OP50 plus the appropriate compound. Chips were scored daily until all animals were dead.
# wildtype C. elegans [2] = assay: Locomotor activity (healthspan) scoring in C. elegans with respect to age; assay type: in vivo
# Excerpt: FIG. 7 depicts a method of scoring locomotor activity in C. elegans wherein the animal's displacement from a fixed boundary determines an activity score. […] Using C. elegans as test subjects, this measurement can be accomplished by assigning each animal a digitally fixed boundary and observing each animal's displacement from that boundary. […] An additional control group was given no treatment. All groups were loaded into chips at the L4-stage. From the 1st day of adulthood, the animals were switched to heat-killed OP50 plus the appropriate compound. The displacement of each animal from its assigned fixed boundary determined an activity score.
# [3] = days 10 and 12 of animal life, 100 μM resveratrol, 500 μM NMN
Compound,effect on lifespan compared to control (wildtype C. elegans [1]),locomotor activity compared to untreated/wildtype (wildtype C. elegans [2]; [3]),fraction of live organisms at the same date compared to control (wildtype C. elegans [1]),"locomotor activity compared to untreated/wildtype (wildtype C. elegans [2]; with respect to age (all ages scored), 20 μg/mL spermidine)","locomotor activity compared to untreated/wildtype (wildtype C. elegans [2]; day 8 of animal life, 6 μg/mL spermine)","locomotor activity compared to untreated/wildtype (wildtype C. elegans [2]; later ages (after day 8), 6 μg/mL spermine)"
"NC(=O)c1ccc[n+]([C@@H]2O[C@H](COP(=O)([O-])O)[C@@H](O)[C@H]2O)c1 [NMN, nicotinamide mononucleotide, reference compound]",strongest increase to lifespan compared to control,significantly higher levels of activity than the wildtype C. elegans; also recorded: significantly higher levels of activity than untreated groups,–,–,–,–
"Oc1ccc(C=Cc2cc(O)cc(O)c2)cc1 [resveratrol, reference compound]",strongest increase to lifespan compared to control,remain more active than the wildtype C. elegans; also recorded: significantly higher levels of activity than untreated groups,–,–,–,–
NCCCCNCCCN [spermidine],"weakest effect on lifespan, yet still significant; also recorded: slight lifespan extension compared to the untreated group",–,increased over control,do not show statistically significant difference in activity levels compared to wildtype C. elegans; also recorded: did not show any significant difference in activity levels compared to the untreated group,–,–
NCCCNCCCCNCCCN [spermine],significant effects on lifespan,–,increased over control,–,significantly more activity; also recorded: significant differences in activity levels compared to the untreated group,does not seem to persist significantly into later ages; also recorded: did not persist into later ages
